# ChEMBL document CHEMBL1128910, “Time-dependent inactivation of steroid C17(20) lyase by 17-cyclopropyl ether-substituted steroids” (Bioorg Med Chem Lett, 1996)
# Assays:
# [1] = biological target: T1, Steroid 17-alpha-hydroxylase/17,20 lyase (Homo sapiens, UniProt P05093); assay: Inhibition of human Cytochrome P450 steroid 17-alpha-hydroxylase/17,20 lyase at 0.8 uM
# T1 sequence (P05093 whole entry): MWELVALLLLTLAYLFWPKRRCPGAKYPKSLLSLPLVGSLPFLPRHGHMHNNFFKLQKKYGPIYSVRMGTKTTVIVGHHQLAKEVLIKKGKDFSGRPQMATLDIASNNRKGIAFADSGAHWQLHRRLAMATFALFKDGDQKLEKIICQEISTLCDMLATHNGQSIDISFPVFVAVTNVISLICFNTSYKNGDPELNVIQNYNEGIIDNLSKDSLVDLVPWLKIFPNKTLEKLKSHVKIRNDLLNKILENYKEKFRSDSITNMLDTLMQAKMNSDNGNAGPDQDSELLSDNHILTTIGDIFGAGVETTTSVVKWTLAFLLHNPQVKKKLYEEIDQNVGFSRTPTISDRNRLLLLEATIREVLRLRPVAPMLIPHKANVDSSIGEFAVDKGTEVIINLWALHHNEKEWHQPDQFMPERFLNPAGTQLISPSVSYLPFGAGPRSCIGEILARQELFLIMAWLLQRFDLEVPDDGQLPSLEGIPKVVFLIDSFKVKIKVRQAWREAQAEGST
# [2] = biological target: T1, Steroid 17-alpha-hydroxylase/17,20 lyase; assay: Inhibition of human Cytochrome P450 steroid 17-alpha-hydroxylase/17,20 lyase at 0.8 uM pre-incubation time 30 minutes
# [3] = biological target: T1, Steroid 17-alpha-hydroxylase/17,20 lyase; assay: Inhibition of cynomolgus monkey Cytochrome P450 steroid 17-alpha-hydroxylase/17,20 lyase at 0.1 uM pre-incubation time of 40 minutes
# [4] = biological target: T1, Steroid 17-alpha-hydroxylase/17,20 lyase; assay: Inhibition of cynomolgus monkey Cytochrome P450 steroid 17-alpha-hydroxylase/17,20 lyase at 1 uM
# [5] = biological target: T1, Steroid 17-alpha-hydroxylase/17,20 lyase; assay: Inhibition of cynomolgus monkey Cytochrome P450 steroid 17-alpha-hydroxylase/17,20 lyase at 1 uM preincubation time 40 minutes
# [6] = biological target: T1, Steroid 17-alpha-hydroxylase/17,20 lyase; assay: Inhibition of cynomolgus monkey Cytochrome P450 steroid 17-alpha-hydroxylase/17,20 lyase at 0.1 uM
SMILES,inhibition at 0.8 µM [1] [%],inhibition at 0.8 µM [2] [%],inhibition at 0.1 µM [3] [%],inhibition at 1 µM [4] [%],inhibition at 1 µM [5] [%],inhibition at 0.1 µM [6] [%]
C[C@]12CCC3C(CCC4=CC(=O)[C@H]5COC[C@]43C5)C1CC[C@@H]2OC1CC1 (stereo partly specified),1,17,,,,
C[C@]12CCC(=O)C=C1CCC1C2CC[C@@]2(C)C1CC[C@@H]2OC1CC1 (stereo partly specified),,,55,73,90,26
CC1(C)C2=CCC3C(CC[C@@]4(C)C3CC[C@@H]4OC3CC3)[C@@]2(C)CC[C@@H]1O (stereo partly specified),0,0,,,,
C[C@]12CC[C@H](O)CC1=CCC1C2CC[C@@]2(C)C1CC[C@@H]2OC1CC1 (stereo partly specified),11,64,,,,
C[C@]12CCC(=O)C=C1C(=O)CC1C2CC[C@@]2(C)C1CC[C@@H]2OC1CC1 (stereo partly specified),,,51,52,79,17
C[C@]12CCC3C(CC=C4C[C@@H](O)[C@H]5COC[C@]43C5)C1CC[C@@H]2OC1CC1 (stereo partly specified),0,0,,,,
